Experimental data from patent US9499550B2 (BRISTOL-MYERS SQUIBB COMPANY, priority 2012, dated 2016).
Like-named read-outs stand apart in the source and are kept apart here.

Experiments:
[1] = test system: HCV genotype 1b (Con1) replicon in HUH-7 cells; assay: HCV replicon luciferase reporter assay, genotype 1b; format: cell-based; conditions: Hepatitis C virus, Huh-7, 72 h, 3 days incubation, read-out: LE_1b (EC50, range)
Method in brief: (§1)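 Replicon inhibition for both genotypes was measured as Renilla luciferase signal (EnduRen, 7.5 μM final, 2 h) after 3-day, 37° C exposure of replicon-bearing HUH-7 cells in 4% FCS DMEM, 0.5% DMSO. The 1b construct carries S1179I; the 1a H77 construct carries P1496L and S2204I. Twenty-point, 3-fold dilutions were fitted four-parametrically for EC50, and CC50 was taken from multiplexed Cell Titer-Blue.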

[2] = test system: HCV genotype 1a (H77 strain) replicon in HUH-7 cells; assay: HCV replicon luciferase reporter assay, genotype 1a; format: cell-based; conditions: Hepatitis C virus, Huh-7, 72 h, 3 days incubation, read-out: LE_1a (EC50, range)
Method in brief: as §1

[3] = HCV genotype 1b replicon luciferase
[4] = HCV genotype 1a replicon luciferase
[5] = HCV genotype 1b replicon luciferase assay, range class
[6] = HCV genotype 1a replicon luciferase assay, range class
[7] = GETYPE1B, HCV genotype 1b replicon luciferase
[8] = GETYPE1A, HCV genotype 1a replicon luciferase

| SMILES | EC50 [1, 3] | EC50 [2, 4] | EC50 [1, 5] | EC50 [2, 6] | also measured |
| --- | --- | --- | --- | --- | --- |
| CC[C@@H]1C[C@H](C)CC/C=C\[C@@H]2C[C@@]2(C(=O)NS(=O)(=O)C2(C)CC2)NC(=O)[C@@H]2C[C@@H](Oc3ncc(OC)c4ccc(F)cc34)CN2C(=O)[C@H]1NC(=O)O[C@H](C)C(F)(F)F [Compound 4357, (R)-1,1,1-trifluoropropan-2-yl ((2R,6S,7R,9R,13aS,14aR,16aS,Z)-7-ethyl-2-((7-fluoro-4-methoxyisoquinolin-1-yl)oxy)-9-methyl-14a-(((1-methylcyclopropyl)sulfonyl)carbamoyl)-5,16-dioxo-1,2,3,5,6,7,8,9,10,11,13a,14,14a,15,16,16a-hexadecahydrocyclopropa[e]pyrrolo[1,2-a][1,4]diazacyclopentadecin-6-yl)carbamate] | 0.51 to 1 nM | 1.01 to 5 nM |  |  |  |
| CC[C@@H]1C[C@H](C)CC/C=C\[C@@H]2C[C@@]2(C(=O)NS(=O)(=O)C2(CF)CC2)NC(=O)[C@@H]2C[C@@H](Oc3nccc4c5c(ccc34)OCCO5)CN2C(=O)[C@H]1NC(=O)OC(C)(C)C(C)(F)F [Compound 5461, 3,3-difluoro-2-methylbutan-2-yl((2R,6S,7R,9R,13aS,14aR,16aS,Z)-2-((2,3-dihydro-[1,4]dioxino[2,3-f]isoquinolin-7-yl)oxy)-7-ethyl-14a-(((1-(fluoromethyl)cyclopropyl)sulfonyl)carbamoyl)-9-methyl-5,16-dioxo-1,2,3,5,6,7,8,9,10,11,13a,14,14a,15,16,16a-hexadecahydrocyclopropa[e]pyrrolo[1,2-a][1,4]diazacyclopentadecin-6-yl)carbamate] | 1.01 to 5 nM | 1.01 to 5 nM |  |  |  |
| COc1ccc2c(O[C@@H]3C[C@H]4C(=O)N[C@]5(C(=O)NS(=O)(=O)C6CC6)C[C@H]5/C=C\CC[C@H](C)C[C@@H](C)[C@H](NC(=O)OC(C)(C)C(F)(F)F)C(=O)N4C3)nc(N3CCOCC3)cc2c1 [Compound 3098, 1,1,1-trifluoro-2-methylpropan-2-yl((2R,6S,7R,9S,13aS,14aR,16aS,Z)-14a-((cyclopropylsulfonyl)carbamoyl)-2-((6-methoxy-3-morpholinoisoquinolin-1-yl)oxy)-7,9-dimethyl-5,16-dioxo-1,2,3,5,6,7,8,9,10,11,13a,14,14a,15,16,16a-hexadecahydrocyclopropa[e]pyrrolo[1,2-a][1,4]diazacyclopentadecin-6-yl)carbamate] |  |  | < 5.46 nM | < 5.46 nM |  |
| CC[C@@H]1C[C@H](C)CC/C=C\[C@@H]2C[C@@]2(C(=O)NS(=O)(=O)C2(C)CC2)NC(=O)[C@@H]2C[C@@H](Oc3ncc(OC)c4ccc(F)cc34)CN2C(=O)[C@H]1NC(=O)N1CCS(=O)(=O)CC1 [Compound 4283, N-((2R,6S,7R,9R,13aS,14aR,16aS,Z)-7-ethyl-2-((7-fluoro-4-methoxyisoquinolin-1-yl)oxy)-9-methyl-14a-(((1-methylcyclopropyl)sulfonyl)carbamoyl)-5,16-dioxo-1,2,3,5,6,7,8,9,10,11,13a,14,14a,15,16,16a-hexadecahydrocyclopropa[e]pyrrolo[1,2-a][1,4]diazacyclopentadecin-6-yl)thiomorpholine-4-carboxamide 1,1-dioxide] | 1.01 to 5 nM | 5.01 to 35 nM |  |  |  |
| CC[C@@H]1C[C@H](C)CC/C=C\[C@@H]2C[C@@]2(C(=O)NS(=O)(=O)C2CC2)NC(=O)[C@@H]2C[C@@H](Oc3nccc4c5c(ccc34)OCCO5)CN2C(=O)[C@H]1NC(=O)OC(C)(C)C(C)(F)F [Compound 5336, 3,3-difluoro-2-methylbutan-2-yl((2R,6S,7R,9R,13aS,14aR,16aS,Z)-14a-((cyclopropylsulfonyl)carbamoyl)-2-((2,3-dihydro-[1,4]dioxino[2,3-f]isoquinolin-7-yl)oxy)-7-ethyl-9-methyl-5,16-dioxo-1,2,3,5,6,7,8,9,10,11,13a,14,14a,15,16,16a-hexadecahydrocyclopropa[e]pyrrolo[1,2-a][1,4]diazacyclopentadecin-6-yl)carbamate] | < 5.46 nM | < 5.46 nM |  |  |  |
| COc1cnc(O[C@@H]2C[C@H]3C(=O)N[C@]4(C(=O)NS(=O)(=O)C5(F)CC5)C[C@H]4/C=C\CC[C@@H](C)C[C@@H](C)[C@H](NC(=O)OCC4(C)CC4)C(=O)N3C2)c2cc(F)ccc12 [Compound 4048, (1-methylcyclopropyl)methyl (2R,6S,7R,9R,13aS,14aR,16aS,Z)-2-(7-fluoro-4-methoxyisoquinolin-1-yloxy)-14a-(1-fluorocyclopropylsulfonylcarbamoyl)-7,9-dimethyl-5,16-dioxo-1,2,3,5,6,7,8,9,10,11,13a,14,14a,15,16,16a-hexadecahydrocyclopropa[e]pyrrolo[1,2-a][1,4]diazacyclopentadecin-6-ylcarbamate] | < 5.46 nM | < 5.46 nM |  |  |  |
| CCC1(S(=O)(=O)NC(=O)[C@@]23C[C@H]2/C=C\CC[C@@H](C)C[C@@H](C)[C@H](NC(=O)OC(C)(C)C(F)(F)F)C(=O)N2C[C@H](Oc4nccc5cc(OC)c(F)cc45)C[C@H]2C(=O)N3)CC1 [Compound 4127] |  |  |  |  | EC50 [1, 7]: < 5.46 nM; EC50 [2, 8]: 4.82 to 103 nM |
| COc1cc(F)cc2c(O[C@@H]3C[C@H]4C(=O)N[C@]5(C(=O)NS(=O)(=O)C6CC6)C[C@H]5/C=C\CC[C@@H](C)C[C@@H](C)[C@H](NC(=O)OC(C)(C)C(F)(F)F)C(=O)N4C3)nccc12 [Compound 3166, 1,1,1-trifluoro-2-methylpropan-2-yl((2R,6S,7R,9R,13aS,14aR,16aS,Z)-14a-((cyclopropylsulfonyl)carbamoyl)-2-((7-fluoro-5-methoxyisoquinolin-1-yl)oxy)-7,9-dimethyl-5,16-dioxo-1,2,3,5,6,7,8,9,10,11,13a,14,14a,15,16,16a-hexadecahydrocyclopropa[e]pyrrolo[1,2-a][1,4]diazacyclopentadecin-6-yl)carbamate] |  |  | < 5.46 nM | < 5.46 nM |  |
| CCCOc1cnc(O[C@@H]2C[C@H]3C(=O)N[C@]4(C(=O)NS(=O)(=O)C5(C)CC5)C[C@H]4/C=C\CC[C@H](C)C[C@@H](C)[C@H](NC(=O)O[C@@H]4C[C@@H]5C[C@@H]5C4)C(=O)N3C2)c2ccccc12 [Compound 5080, (1R,3r,5S)-bicyclo[3.1.0]hexan-3-yl((2R,6S,7R,9S,13aS,14aR,16aS,Z)-7,9-dimethyl-14a-(((1-methylcyclopropyl)sulfonyl)carbamoyl)-5,16-dioxo-2-((4-propoxyisoquinolin-1-yl)oxy)-1,2,3,5,6,7,8,9,10,11,13a,14,14a,15,16,16a-hexadecahydrocyclopropa[e]pyrrolo[1,2-a][1,4]diazacyclopentadecin-6-yl)carbamate] | 4.82 to 103 nM | > 87.4 nM |  |  |  |
| CC[C@@H]1C[C@H](C)CC/C=C\[C@@H]2C[C@@]2(C(=O)NS(=O)(=O)C2(C)CC2)NC(=O)[C@@H]2C[C@@H](Oc3ncc(OC)c4ccc(F)cc34)CN2C(=O)[C@H]1NC(=O)C1(C(F)(F)F)CC1 [Compound 4323, (2R,6S,7R,9R,13aS,14aR,16aS,Z)-7-ethyl-2-((7-fluoro-4-methoxyisoquinolin-1-yl)oxy)-9-methyl-N-((1-methylcyclopropyl)sulfonyl)-5,16-dioxo-6-(1-(trifluoromethyl)cyclopropanecarboxamido)-1,2,3,5,6,7,8,9,10,11,13a,14,14a,15,16,16a-hexadecahydrocyclopropa[e]pyrrolo[1,2-a][1,4]diazacyclopentadecine-14a-carboxamide] | 0.51 to 1 nM | 1.01 to 5 nM |  |  |  |
| COc1ccc2c(O[C@@H]3C[C@H]4C(=O)N[C@]5(C(=O)NS(=O)(=O)C6(C)CC6)C[C@H]5/C=C\CC[C@@H](C)C[C@@H](C)[C@H](NC(=O)OC(C)(C)C(F)(F)F)C(=O)N4C3)ncc(N3C[C@@H](C)O[C@@H](C)C3)c2c1 [Compound 4132] |  |  |  |  | EC50 [1, 7]: < 5.46 nM; EC50 [2, 8]: < 5.46 nM |
| C[C@@H]1CC/C=C\[C@@H]2C[C@@]2(C(=O)NS(=O)(=O)C2CC2)NC(=O)[C@@H]2C[C@@H](Oc3ncc(OC4CC4)c4ccccc34)CN2C(=O)[C@@H](NC(=O)OC(C)(C)C(F)(F)F)[C@H](C)C1 [Compound 24, 1,1,1-trifluoro-2-methylpropan-2-yl((2R,6S,7R,9R,13aS,14aR,16aS,Z)-2-((4-cyclopropoxyisoquinolin-1-yl)oxy)-14a-((cyclopropylsulfonyl)carbamoyl)-7,9-dimethyl-5,16-dioxo-1,2,3,5,6,7,8,9,10,11,13a,14,14a,15,16,16a-hexadecahydrocyclopropa[e]pyrrolo[1,2-a][1,4]diazacyclopentadecin-6-yl)carbamate] |  |  | < 5.46 nM | < 5.46 nM |  |
| COCCOc1cnc(O[C@@H]2C[C@H]3C(=O)N[C@]4(C(=O)NS(=O)(=O)C5(C)CC5)C[C@H]4/C=C\CC[C@@H](C)C[C@@H](C)[C@H](NC(=O)OC(C)(C)C(F)(F)F)C(=O)N3C2)c2ccccc12 [Compound 1038, 1,1,1-trifluoro-2-methylpropan-2-yl((2R,6S,7R,9R,13aS,14aR,16aS,Z)-2-((4-(2-methoxyethoxyl)isoquinolin-1-yl)oxy)-7,9-dimethyl-14a-(((1-methylcyclopropyl)sulfonyl)carbamoyl)-5,16-dioxo-1,2,3,5,6,7,8,9,10,11,13a,14,14a,15,16,16a-hexadecahydrocyclopropa[e]pyrrolo[1,2-a][1,4]diazacyclopentadecin-6-yl)carbamate] |  |  | < 5.46 nM | < 5.46 nM |  |
